# Laboratory results published in ChEMBL document CHEMBL1201862, “PubChem BioAssay data set” (2004).
# The source made the active and inactive calls.
# Legend:
# Kallikrein-7 = Kallikrein-7 (Homo sapiens, UniProt P49862); test: Fluorescence Intensity-based biochemical primary high throughput dose response assay to identify activators of kallikrein-7 (K7) zymogen.
# [1] = target: T1, Oxysterols receptor LXR-beta (Homo sapiens, UniProt P55055); type: functional, cell-based;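 note: Cell-based luminescence dose-response assay of agonist activity at LXR, run as a confirmatory counterscreen to a daf-12 agonist screen; HEK293 cells with Gal4-LXR fusion and GAL4-driven luciferase reporter; agonist potency from rising luciferase signal of a Gal4-LXR reporter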
# T1 sequence (P55055 whole entry): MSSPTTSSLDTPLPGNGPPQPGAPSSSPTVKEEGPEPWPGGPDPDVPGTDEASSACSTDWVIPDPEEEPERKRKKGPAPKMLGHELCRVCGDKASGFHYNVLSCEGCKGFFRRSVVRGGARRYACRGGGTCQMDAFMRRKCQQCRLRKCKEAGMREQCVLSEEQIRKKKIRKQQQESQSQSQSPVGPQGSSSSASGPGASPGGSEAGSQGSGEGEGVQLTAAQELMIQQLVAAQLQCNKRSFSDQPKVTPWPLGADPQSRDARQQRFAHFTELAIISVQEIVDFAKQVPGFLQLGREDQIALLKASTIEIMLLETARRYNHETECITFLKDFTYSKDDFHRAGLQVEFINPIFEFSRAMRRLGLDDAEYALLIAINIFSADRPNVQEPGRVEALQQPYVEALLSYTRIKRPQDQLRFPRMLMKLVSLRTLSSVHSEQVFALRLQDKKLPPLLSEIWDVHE
# [2] = target: Disintegrin and metalloproteinase domain-containing protein 17 (Homo sapiens, UniProt P78536); test: exosite inhibitors of ADAM17, dose response, biochemical (AID 743260)
# [3] = inhibition of ADAM10 peptide cleavage – biochemical, FRET peptide substrate, recombinant human ADAM10, selectivity assay for ADAM17 exosite inhibitor project, dose response (AID 743259);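 note: ADAM10 enzyme cleaving a FRET peptide substrate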
# [4] = target: Metabotropic glutamate receptor 5 (Rattus norvegicus, UniProt P31424); test: Identification of a glycine sulfonamide based non-MPEP site positive allosteric potentiator (PAM) of mGlu5 (calcium_assay).; type: functional
# [5] = target: 1-phosphatidylinositol 4,5-bisphosphate phosphodiesterase beta-3 (Homo sapiens, UniProt Q01970); test: Fluorescence-based biochemical high throughput dose response assay to identify inhibitors of phospholipase C isozymes (PLC-B3).
# [6] = target: T2, Carboxy-terminal domain RNA polymerase II polypeptide A small phosphatase 1 (Homo sapiens, UniProt Q9GZU7); test: CTDSP1 inhibitors, concentration-response, biochemical, absorbance readout, ultra-high-throughput screen actives (AID 540297); type: functional
# T2 sequence (Q9GZU7 whole entry): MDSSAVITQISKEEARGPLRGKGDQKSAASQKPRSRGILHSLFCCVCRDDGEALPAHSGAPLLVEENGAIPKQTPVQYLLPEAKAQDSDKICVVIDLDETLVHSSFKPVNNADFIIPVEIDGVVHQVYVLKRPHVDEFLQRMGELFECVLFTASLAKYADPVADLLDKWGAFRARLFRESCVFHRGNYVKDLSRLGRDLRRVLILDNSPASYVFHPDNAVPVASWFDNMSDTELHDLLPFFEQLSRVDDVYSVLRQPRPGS
# [7] = target: 1-phosphatidylinositol 4,5-bisphosphate phosphodiesterase gamma-1 (Homo sapiens, UniProt P19174); test: Counterscreen for inhibitors of phospholipase C isozymes (PLC-B3): Fluorescence-based biochemical high throughput dose response assay to identify inhibitors of phospholipase C isozymes (PLC-gamma1).
# [8] = HEK-293T viability loss after treatment – luminescence, T-cell screen hits, cytotoxicity control for TCR NF-kB inhibitor project, dose response (AID 489026); type: functional, cell-based;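 note: cells exposed to compound about 14 hours before the viability readout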
# Paired box protein Pax-8 = Paired box protein Pax-8 (Homo sapiens, UniProt Q06710); test: PAX8 transcriptional activity inhibition in RMG-I – RMG-I cells, luciferase, cherry-pick, dose response (AID 687027); type: functional, cell-based;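 note: luciferase reporter driven by Pax8 target thyroperoxidase promoter measured by SteadyGlo luminescence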
# [9] = target: T3, Heat shock factor protein 1 (Mus musculus, UniProt P38532); test: decrease of HSF1-responsive luciferase luminescence – cell-based, NIH3T3, dose retest, confirmation (AID 2382); type: functional;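 note: NIH3T3 fibroblasts with HSF1-driven luciferase reporter stressed by proteasome inhibitor MG132; luminescence from HSF1-driven luciferase expression after 8 hours of MG132 stress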
# T3 sequence (P38532 whole entry): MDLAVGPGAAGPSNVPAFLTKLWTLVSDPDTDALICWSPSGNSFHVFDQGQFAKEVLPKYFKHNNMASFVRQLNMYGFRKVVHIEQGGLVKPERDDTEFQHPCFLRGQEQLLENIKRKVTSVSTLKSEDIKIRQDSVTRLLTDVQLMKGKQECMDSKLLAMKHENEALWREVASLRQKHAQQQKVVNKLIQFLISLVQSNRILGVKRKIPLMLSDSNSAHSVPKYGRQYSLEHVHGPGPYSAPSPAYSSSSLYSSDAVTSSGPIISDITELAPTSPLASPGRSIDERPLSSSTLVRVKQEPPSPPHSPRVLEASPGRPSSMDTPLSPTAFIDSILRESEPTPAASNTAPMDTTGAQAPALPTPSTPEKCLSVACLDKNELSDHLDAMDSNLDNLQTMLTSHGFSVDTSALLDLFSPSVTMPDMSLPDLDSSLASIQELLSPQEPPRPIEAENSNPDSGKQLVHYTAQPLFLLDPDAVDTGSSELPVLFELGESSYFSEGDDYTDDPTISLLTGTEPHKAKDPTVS
# [10] = reduction of Shn3 3'UTR-driven luciferase in osteoblasts – cell-based, Clone20 osteoblasts, firefly luciferase, cherry-picked, dose response (AID 624132); type: functional;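 note: firefly luciferase luminescence from reporter carrying the Shn3 3'UTR in osteoblasts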
# [11] = blockade of melanocortin 4 receptor signaling – cell-based, plate reader, cherry pick, counter-screen for LGR2 antagonist project, dose response (AID 743444); type: functional;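 note: transfected HEK 293 cells stimulated with alpha-MSH peptide; potency of inhibitors of the alpha-MSH evoked signal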
# [12] = blockers of bursicon-stimulated LGR2 cAMP reporter – cell-based, HEK293, CRE-luciferase reporter, cherry pick, set 2, dose response (AID 743343); type: functional;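 note: transfected cells were stimulated with diluted bursicon conditioned medium after compound addition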
# [13] = Shn3 3'UTR reporter signal decrease – cell-based, Clone20 osteoblasts, firefly luciferase, cherry-pick, set 2, Schnurri-3 inhibitor project, dose response (AID 720490); type: functional;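 note: actives lower the luminescence signal as inhibitors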
# [14] = toxicity toward HepG2 liver cells – cell-based, plate reader, cherry-pick, antagonist series, cytotoxicity control, dose response (AID 743416); type: functional
# [15] = loss of viability in HepG2 cells – cell-based, CellTiter-Glo, cherry-picked, cytotoxicity control for Shn3 inhibitor project, dose response (AID 624134); type: functional
# [16] = viability loss in HEK293 cells – cell-based, plate reader, cherry-picked samples, cytotoxicity control, dose response (AID 743446); type: functional
# [17] = target: Potassium channel subfamily K member 3 (Rattus norvegicus, UniProt O54912); test: SAR analysis for the identification of selective inhibitors of the two-pore domain potassium channel TASK1(KCNK3):Automated Electrophysiology.; type: functional
# [18] = target: T4, Potassium channel subfamily K member 9 (Homo sapiens, UniProt Q9NPC2); test: KCNK9 flux blockade, concentration-response – cell-based, FluxOR thallium flux, selectivity assay for TASK1 inhibitor project, SAR follow-up (AID 652211); type: functional;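 note: potency is for inhibitors of the channel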
# [19] = target: Potassium channel subfamily K member 3 (Homo sapiens, UniProt O14649); test: inhibition of human KCNK3 channel flux – CHO cells, FluxOR thallium flux, SAR follow-up (AID 652212); type: functional
# [20] = target: T4, Potassium channel subfamily K member 9; test: TASK3 channel blockers, electrophysiology – cell-based, automated electrophysiology, selectivity assay for TASK1 (KCNK3) inhibitor project, SAR follow-up (AID 652210); type: functional
# [21] = mouse embryonic fibroblast toxicity – cell-based, plate reader, dry powder, set 2, cytotoxicity control, dose response (AID 652280); type: functional; conditions: NIH3T3
# [22] = anti-trypanosomal activity in BESM host cells – imaging, CA-I/72 strain, bovine embryo skeletal muscle, dry powder, dose response (AID 651885); type: functional, cell-based
# [23] = T. cruzi growth inhibition in host cells, dose response, cell-based, plate reader, dry powder, set 2 (AID 652275); type: functional
# [24] = inhibition of mouse IRAP aminopeptidase activity – biochemical, Leu-AMC fluorescence, cherry-picked samples, set 2, selectivity assay for ERAP1 modulator project, dose response (AID 743340)
# [25] = P. falciparum Dd2 growth inhibitors, dose response, SYBR Green, cherry-picked samples (AID 1159567); type: functional, cell-based
# [26] = viability loss in A549 lung cancer cells – cell-based, cherry-picks, […], cytotoxicity control, dose response (AID 1053119); type: functional
# [27] = viability loss in HEK293 kidney cells – cell-based, cherry-picks, set 5, cytotoxicity control, dose response (AID 1053117); type: functional
# [28] = toxicity to human hepatoma HepG2 cells – cell-based, cherry-picked samples, cytotoxicity control, dose response (AID 1159577); type: functional
# [29] = viability loss in HepG2 hepatoma cells – cell-based, cherry-picks, set 5, cytotoxicity control, dose response (AID 1053118); type: functional
# [30] = HeLa cell viability loss – plate reader, dry powder, cytotoxicity control, dose response (AID 651946); type: functional, cell-based
# [31] = IC50 of insulin release inhibition, rat insulinoma INS-1E line, 5 mM glucose, cell-based (AID 1117331); type: functional
# [32] = cytotoxicity toward Colo320 cells – cell-based, CellTiter-Glo luminescence, IC50, dose response (AID 1117334); type: functional; conditions: COLO 320
# [33] = HCT116 cell viability decrease, GSK3B pretreatment – CellTiter-Glo, IC50, dose response (AID 1117339); type: functional; conditions: HCT-116
# [34] = cytotoxicity toward HT-29 cells – cell-based, CellTiter-Glo luminescence, IC50, dose response (AID 1117330); type: functional
# [35] = RKO cell viability reduction, dose response, CellTiter-Glo luminescence (AID 1117322); type: functional
# [36] = CellTiter-Glo luminescence survival assay, SW480 colon tumor line, concentration-response curve, half-maximal inhibitory concentration (AID 1117338); type: functional
# [37] = SNU-C1 cell viability reduction, dose response, CellTiter-Glo luminescence (AID 1117323); type: functional, cell-based
# [38] = Reduced DLD-1 viability, concentration-response, CellTiter-Glo luminescence (AID 1117352); type: functional
# [39] = cytotoxicity toward HCT116 cells – cell-based, CellTiter-Glo luminescence, IC50, dose response (AID 1117332); type: functional; conditions: HCT-116
# [40] = rise of 4N DNA cells, HeLa – IC50, dose response (AID 1117351); type: functional, cell-based
# [41] = rise of 2N DNA cells, HeLa – IC50, dose response (AID 1117349); type: functional, cell-based
# T4 sequence (Q9NPC2 whole entry): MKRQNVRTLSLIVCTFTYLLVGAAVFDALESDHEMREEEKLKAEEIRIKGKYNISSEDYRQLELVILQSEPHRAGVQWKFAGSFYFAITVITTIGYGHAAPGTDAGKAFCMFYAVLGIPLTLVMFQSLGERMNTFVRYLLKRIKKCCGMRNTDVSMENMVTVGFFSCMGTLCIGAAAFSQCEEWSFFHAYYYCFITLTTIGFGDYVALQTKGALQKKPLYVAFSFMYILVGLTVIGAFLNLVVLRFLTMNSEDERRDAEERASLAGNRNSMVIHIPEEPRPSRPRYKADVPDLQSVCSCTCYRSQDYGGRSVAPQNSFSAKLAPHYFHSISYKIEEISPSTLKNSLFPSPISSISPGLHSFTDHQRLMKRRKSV
# Potassium channel subfamily K member 3 (Rattus norvegicus, UniProt O54912), sequence (O54912 whole entry, the tested form may be a part): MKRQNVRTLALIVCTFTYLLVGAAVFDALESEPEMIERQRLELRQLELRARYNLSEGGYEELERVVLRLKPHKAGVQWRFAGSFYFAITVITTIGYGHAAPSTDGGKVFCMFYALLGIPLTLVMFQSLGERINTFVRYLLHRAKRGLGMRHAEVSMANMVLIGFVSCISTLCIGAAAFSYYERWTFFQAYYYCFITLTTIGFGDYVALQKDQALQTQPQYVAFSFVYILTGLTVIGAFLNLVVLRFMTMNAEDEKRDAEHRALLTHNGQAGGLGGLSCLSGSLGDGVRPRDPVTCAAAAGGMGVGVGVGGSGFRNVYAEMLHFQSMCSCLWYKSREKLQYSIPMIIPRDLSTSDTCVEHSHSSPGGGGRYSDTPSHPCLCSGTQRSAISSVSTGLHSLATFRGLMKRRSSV
# Kallikrein-7, sequence (P49862 whole entry, the tested form may be a part): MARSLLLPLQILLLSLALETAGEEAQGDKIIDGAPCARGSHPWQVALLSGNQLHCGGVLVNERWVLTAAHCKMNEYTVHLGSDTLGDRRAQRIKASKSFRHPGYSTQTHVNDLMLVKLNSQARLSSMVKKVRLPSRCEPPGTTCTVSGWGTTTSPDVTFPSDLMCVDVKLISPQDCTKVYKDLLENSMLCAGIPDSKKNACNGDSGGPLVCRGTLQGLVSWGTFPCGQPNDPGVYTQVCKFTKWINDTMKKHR
# 1-phosphatidylinositol 4,5-bisphosphate phosphodiesterase gamma-1, sequence (P19174 whole entry): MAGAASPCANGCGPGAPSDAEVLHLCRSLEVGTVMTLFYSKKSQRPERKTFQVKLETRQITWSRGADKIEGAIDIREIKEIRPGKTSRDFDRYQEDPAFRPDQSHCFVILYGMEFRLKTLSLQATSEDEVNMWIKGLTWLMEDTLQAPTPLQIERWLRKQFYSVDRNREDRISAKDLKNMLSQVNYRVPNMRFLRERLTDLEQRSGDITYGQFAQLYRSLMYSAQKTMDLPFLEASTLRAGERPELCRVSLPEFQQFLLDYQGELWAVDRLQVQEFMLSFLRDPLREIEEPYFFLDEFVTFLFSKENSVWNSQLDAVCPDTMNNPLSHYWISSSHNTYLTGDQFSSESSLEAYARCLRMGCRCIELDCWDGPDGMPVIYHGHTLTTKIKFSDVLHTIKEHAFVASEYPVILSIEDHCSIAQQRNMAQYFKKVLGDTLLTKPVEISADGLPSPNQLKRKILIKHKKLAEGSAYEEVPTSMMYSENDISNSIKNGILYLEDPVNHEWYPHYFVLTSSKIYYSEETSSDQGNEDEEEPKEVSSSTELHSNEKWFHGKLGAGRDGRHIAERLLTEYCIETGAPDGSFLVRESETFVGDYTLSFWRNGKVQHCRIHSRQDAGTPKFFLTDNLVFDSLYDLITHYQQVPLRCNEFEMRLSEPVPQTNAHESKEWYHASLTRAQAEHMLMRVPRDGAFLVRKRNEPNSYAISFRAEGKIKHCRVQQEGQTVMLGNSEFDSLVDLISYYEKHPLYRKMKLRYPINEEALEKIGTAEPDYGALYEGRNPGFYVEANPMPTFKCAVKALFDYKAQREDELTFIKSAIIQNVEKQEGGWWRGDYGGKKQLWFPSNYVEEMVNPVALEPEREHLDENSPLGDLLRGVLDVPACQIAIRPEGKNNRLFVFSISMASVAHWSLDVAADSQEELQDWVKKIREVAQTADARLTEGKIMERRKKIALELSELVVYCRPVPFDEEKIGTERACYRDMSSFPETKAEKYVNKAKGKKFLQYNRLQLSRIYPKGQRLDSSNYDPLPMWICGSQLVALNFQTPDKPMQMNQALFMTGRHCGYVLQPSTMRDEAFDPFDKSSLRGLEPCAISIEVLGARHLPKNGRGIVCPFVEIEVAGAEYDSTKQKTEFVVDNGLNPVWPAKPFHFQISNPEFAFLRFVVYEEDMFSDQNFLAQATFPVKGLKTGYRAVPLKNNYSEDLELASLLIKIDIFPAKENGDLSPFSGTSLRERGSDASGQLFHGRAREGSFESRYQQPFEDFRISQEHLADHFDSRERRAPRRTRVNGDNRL
# Metabotropic glutamate receptor 5, sequence (P31424 whole entry): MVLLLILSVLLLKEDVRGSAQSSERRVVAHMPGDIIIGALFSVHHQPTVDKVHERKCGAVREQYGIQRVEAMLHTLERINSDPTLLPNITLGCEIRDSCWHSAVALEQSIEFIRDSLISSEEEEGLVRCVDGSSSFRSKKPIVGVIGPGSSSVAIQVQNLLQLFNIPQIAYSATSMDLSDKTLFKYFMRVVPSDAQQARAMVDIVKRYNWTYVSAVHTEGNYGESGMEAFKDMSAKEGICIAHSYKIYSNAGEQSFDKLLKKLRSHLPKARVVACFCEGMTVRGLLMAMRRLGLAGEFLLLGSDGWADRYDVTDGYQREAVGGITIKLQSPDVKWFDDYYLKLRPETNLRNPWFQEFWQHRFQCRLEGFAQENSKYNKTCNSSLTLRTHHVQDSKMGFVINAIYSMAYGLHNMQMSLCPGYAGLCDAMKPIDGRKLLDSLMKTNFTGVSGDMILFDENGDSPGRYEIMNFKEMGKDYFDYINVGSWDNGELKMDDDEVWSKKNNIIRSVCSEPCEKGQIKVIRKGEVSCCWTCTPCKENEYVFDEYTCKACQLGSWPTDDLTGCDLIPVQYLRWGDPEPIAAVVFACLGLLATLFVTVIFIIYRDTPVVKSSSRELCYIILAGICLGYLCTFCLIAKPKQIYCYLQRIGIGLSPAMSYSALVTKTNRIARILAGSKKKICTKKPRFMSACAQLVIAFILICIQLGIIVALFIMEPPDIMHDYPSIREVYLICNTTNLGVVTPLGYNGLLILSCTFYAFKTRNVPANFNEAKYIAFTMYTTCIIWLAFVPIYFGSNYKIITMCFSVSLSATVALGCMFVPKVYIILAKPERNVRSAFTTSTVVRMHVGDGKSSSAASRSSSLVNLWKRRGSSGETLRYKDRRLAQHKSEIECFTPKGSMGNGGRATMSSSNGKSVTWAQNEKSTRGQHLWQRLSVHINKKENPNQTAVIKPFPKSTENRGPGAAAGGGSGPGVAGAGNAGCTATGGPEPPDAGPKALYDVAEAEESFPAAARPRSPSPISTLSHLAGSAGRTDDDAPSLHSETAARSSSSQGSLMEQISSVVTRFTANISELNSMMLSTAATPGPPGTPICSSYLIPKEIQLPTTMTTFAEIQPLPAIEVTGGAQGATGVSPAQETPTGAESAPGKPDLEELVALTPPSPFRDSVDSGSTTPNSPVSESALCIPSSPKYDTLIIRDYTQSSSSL
# Potassium channel subfamily K member 3 (Homo sapiens, UniProt O14649), sequence (O14649 whole entry): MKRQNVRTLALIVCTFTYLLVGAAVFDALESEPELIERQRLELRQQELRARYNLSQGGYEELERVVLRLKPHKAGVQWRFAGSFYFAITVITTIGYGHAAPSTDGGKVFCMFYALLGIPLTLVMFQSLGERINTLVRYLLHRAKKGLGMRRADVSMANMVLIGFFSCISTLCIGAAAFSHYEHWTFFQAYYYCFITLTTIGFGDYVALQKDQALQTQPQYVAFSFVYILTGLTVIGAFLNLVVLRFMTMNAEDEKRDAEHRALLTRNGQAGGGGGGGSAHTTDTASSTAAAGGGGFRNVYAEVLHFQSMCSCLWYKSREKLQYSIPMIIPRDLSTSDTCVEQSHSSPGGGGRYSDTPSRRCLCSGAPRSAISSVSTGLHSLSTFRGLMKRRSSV
# Paired box protein Pax-8, sequence (Q06710 whole entry): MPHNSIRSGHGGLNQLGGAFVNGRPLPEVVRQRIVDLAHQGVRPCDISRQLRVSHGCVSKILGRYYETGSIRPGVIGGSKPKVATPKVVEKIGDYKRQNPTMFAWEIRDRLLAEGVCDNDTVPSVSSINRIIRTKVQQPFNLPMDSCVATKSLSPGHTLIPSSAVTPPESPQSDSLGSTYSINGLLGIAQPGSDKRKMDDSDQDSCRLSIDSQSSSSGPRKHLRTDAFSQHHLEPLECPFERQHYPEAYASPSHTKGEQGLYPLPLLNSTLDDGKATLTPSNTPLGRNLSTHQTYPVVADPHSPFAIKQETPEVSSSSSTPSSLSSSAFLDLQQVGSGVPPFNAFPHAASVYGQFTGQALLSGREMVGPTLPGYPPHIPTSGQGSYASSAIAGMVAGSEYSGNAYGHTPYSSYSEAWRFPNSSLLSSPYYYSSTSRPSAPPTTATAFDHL
structure (smiles),measurement,setting,value
COc1ccc(C2Nc3ccccc3C(=O)N2NC(C)=O)c(OC)c1 (stereo unspecified),EC50,Kallikrein-7,9.55 µM (active)
Cc1ccc(C2=Nc3ccccc3N=C(C(Cl)Cl)C2)cc1,EC50,cells,> 67.5 µM (inactive)
same,EC50,[1],> 67.5 µM (inactive)
Cc1ccccc1NC1=NC(=O)/C(=C/c2cccn2C)S1,IC50,[2],> 69.5 µM (inactive)
same,IC50,[3],> 69.5 µM (inactive)
O=S(=O)(c1ccc(F)cc1)N1CCCC(c2nc(-c3ccc(F)cc3)no2)C1 (stereo unspecified),EC50,[4],4.53 µM
Cc1cccc(NC(=O)Cn2c(O)c(N=NC(=O)c3ccccc3O)c3ccccc32)c1,IC50,[5],> 123 µM (inactive)
same,IC50,[6],1.99 µM (active)
same,IC50,[7],> 123 µM (inactive)
Cc1nc(SCC(=O)Nc2nc3ccccc3s2)c(C#N)c(C)c1C,IC50,[8],> 80 µM (inactive)
same,AC50,Paired box protein Pax-8,< 0.26 µM (active)
same,EC50,[9],< 0.16 µM (active)
same,AC50,[10],< 0.26 µM (active)
same,AC50,[11],< 0.068 µM (active)
same,AC50,[12],0.0912 µM (active)
same,AC50,[13],< 0.135 µM (active)
same,AC50,[14],> 52 µM (inactive)
same,AC50,[15],> 70 µM (inactive)
same,AC50,[16],> 52 µM (inactive)
CCOc1ccccc1C(=O)Nc1cccc(NC(=O)C2CCCC2)c1,IC50,[17],0.03 µM (active)
same,IC50,[18],1.11 µM (active)
same,IC50,[19],0.108 µM (active)
same,IC50,[20],0.49 µM (active)
C[C@@H]1CN([C@@H](C)CO)C(=O)c2cc(-c3ccncc3)cnc2O[C@H]1CN(C)Cc1ccc(Oc2ccccc2)cc1,AC50,[21],15.3 µM (active)
same,IC50,[22],> 20 µM (inactive)
same,AC50,[23],2.93 µM (active)
CCCN(C)C[C@@H]1OCCCC[C@H](C)Oc2ccc(NC(=O)Nc3ccc(F)cc3)cc2C(=O)N([C@H](C)CO)C[C@@H]1C,AC50,[24],13.1 µM (active)
CO[C@H]1CN(C)C(=O)c2ccc(NC(=O)c3ccc(-c4ccccc4)cc3)cc2OC[C@@H](C)NC[C@H]1C,AC50,[25],6.23 µM (active)
same,AC50,[26],26.2 µM (active)
same,AC50,[27],20.5 µM (active)
same,AC50,[28],22 µM (active)
same,AC50,[29],15.5 µM (active)
c1ccc(-c2nnc(SCc3cscn3)o2)cc1,AC50,[30],> 52 µM (inactive)
CCCCN(CCCC)C(C(N)=O)c1ccc(OC)cc1 (stereo unspecified) [AMBUCETAMIDE],IC50,[31],> 33.3 µM (inactive)
CCOC(=O)c1ccccc1C(=O)OCC [DIETHYL PHTHALATE],IC50,[32],> 20 µM (inactive)
same,IC50,[33],> 20 µM (inactive)
same,IC50,[34],> 20 µM (inactive)
same,IC50,[35],> 20 µM (inactive)
same,IC50,[36],> 20 µM (inactive)
same,IC50,[37],> 20 µM (inactive)
same,IC50,[38],> 20 µM (inactive)
same,IC50,[39],> 20 µM (inactive)
NCCCC[C@H](N[C@@H](CCc1ccccc1)C(=O)O)C(=O)N1CCC[C@H]1C(=O)O [LISINOPRIL],IC50,[40],> 10 µM (inactive)
same,IC50,[32],> 20 µM (inactive)
same,IC50,[34],> 6.67 µM (inactive)
same,IC50,[35],8.88 µM (inactive)
same,IC50,[36],4.03 µM (active)
same,IC50,[37],2.53 µM (active)
same,IC50,[38],2.24 µM (active)
same,IC50,[41],> 10 µM (inactive)
same,IC50,[39],3.39 µM (active)
